This note sets out measurements from patent US20020160413A1, “COMBINATORIAL LIBRARIES” (priority 1998, published 2002).

What all share (format): binding
For one test, the system named is oligo (dA•dT). In words: Affinity selection of amine/salicylaldehyde/Zn2+ library on DNA-cellulose resin, HPLC of derivatized amines in initial elution. The conditions noted are these: 82 μM salicylaldehyde, 164 μM each amine. How it is done:
For each sample, 15 mg oligo(dT) cellulose was weighed into a 2 ml Bio-Rad BIOSPIN™ polypropylene chromatography column equipped with a glass frit. The resin was then taken up in 750 μl HEPES buffer (10 mM HEPES, 100 mM KC1, pH 6.8). 0.5 A(260) units of oligo(dA) were then added in 50 μl H2O and allowed to incubate on the resin for one hour at ambient temperature prior to the addition of library samples. During this pre-incubation period, as well as throughout the remainder of the experiments, gentle agitation was provided by rotating the samples on a Barnstead-Thermolyne LAB QUAKE™ rotary shaker. In a similar manner, 15 mg of unfunctionalized cellulose for each control experiment was allowed to soak in 800 μl HEPES buffer at ambient temperature for one hour prior to the addition of library samples.
As one skilled in the are will note, the complexes shown above represent only a subset of the complexes that would be present in this equilibrium. Samples were prepared in triplicate from stock solutions as indicated in Table 1 to provide a total volume of 450 μl. An identical set of samples was prepared for control experiments. In each case, libraries were allowed to incubate at ambient temperature for one hour prior to addition to the DNA-cellulose or control cellulose resin. Additional sets of library samples were prepared according to lines C and D of Table 1 for control experiments conducted in the absence of DNA-cellulose or unfunctionalized cellulose resin.
Following the pre-incubation period, each sample was added to either a DNA-cellulose or unfunctionalized cellulose column as appropriate. These samples were then allowed to incubate on the resin with gentle agitation at ambient temperature for six hours. Solutions were then eluted from the resin, frozen, and lyophilized prior to derivatization and analysis as described below. […]
In order to separate and identify as many constituents of each sample as possible, a minimum of two HPLC elutions were performed for each sample. […] Elutions were monitored at 230 nm. […]

For test [1], the system named is double-stranded oligo(dA)-oligo(dT). In words: Affinity selection and amplification of salicylaldimine library on double-stranded DNA affinity column. The conditions noted are these: for retention on the affinity column in the presence of zinc: 0.5 mM each of 8-13, with 26 MM ZnCl2, normalized to values in the absence of zinc, two-hour incubation. The source says: A serious potential problem with the selection and amplification of a single compound from an equilibrating mixture of complexes is that of identifying the desired high-affinity species. First, if the selection is not complete for a single compound, the separation and identification of a potentially large number of complexes presents a significant analytical challenge. Furthermore, since reequilibration of complexes can occur once the affinity resin is removed, it might be expected that binding information would be lost. […] Application of this technique to the eluent from an affinity column would permit deconvolution of the library to provide information about the identity of binding complexes.
With a series of monomers, verification of self-assembly in aqueous solutions, and a separation method in hand, the experimental tools were in place to conduct an affinity selection and amplification experiment. A standard solution of 0.5 mM 8-13 (total concentration 3 mM in “monomer”) was prepared in 10 mM Tris•HCl, 100 mM KCl, 1% DMSO, pH 7.5. To determine the effect of zinc on the observed selection, samples were prepared either with or without 26 MM ZnCl2. Samples were allowed to incubate for one hour to allow an equilibrium mixture of complexes to form, and the latter were then individually added to affinity columns prepared from 30 mg of commercial poly(dT)-cellulose resin (Pharmacia Biotech) preincubated with one A260 unit (approximately 7 nmol) of oligo (dA)12-18(Oligo (dA)12-18 as obtained from Pharmacia Biotech is a mixture of homopolymeric, single-stranded DNA of length 12 to 18) in 10 mM Tris•HCl, 100 mM KCl, pH 7.5 for formation of double-stranded DNA (giving an approximate, average complex:base pair ratio of 85:1). Following a two-hour incubation of the libraries on the resin, solutions were eluted, lyophilized, and derivatized as described above.

Test [2] can be described thus: Control selection of salicylaldimine library on cellulose alone. The conditions noted are these: conditions identical to double-stranded experiment.
The test system of test [3] is single-stranded oligo(dT)-cellulose. In words: Control selection of salicylaldimine library on single-stranded oligo(dT)-cellulose. The conditions noted are these: conditions identical to double-stranded experiment.
Setting [4] is: 41 μM Zn2+, normalized to zinc-free samples.

As for `CN1CCCC1CCN` (stereo not drawn) [Amine 4, N-methyl 2-aminoethyl pyrrolidine], the “amount retained on the column at higher Zn2+ versus 41 μM Zn2+” value in the test with oligo (dA•dT) (82 μM Zn2+) is “significant reduction in the amount of 4 retained”. In the test with oligo (dA•dT) (setting [4]), the “reduction in the amount of derivatized amine in initial elution (in words)” value is recorded as “significant reduction”.
In the case of `NCCCO` [Amine 6, 3-hydroxypropylamine], in the test on oligo (dA•dT) (setting [4]), the “reduction in the amount of derivatized amine in initial elution” value is above 50%.
For the molecule `CN1CCCC1CC/N=C/c1ccccc1O` (stereo not drawn) [monomer 9], the “retention on the affinity column in the presence of zinc” value in test [1] is given as “most strongly retained”. In test [2], the “retention on cellulose, presence versus absence of zinc” value is recorded as “to the same extent”. For the same molecule, in test [3], the “retention on oligo(dT)-cellulose, presence versus absence of zinc” value is listed as “to the same extent”.
For the molecule `Oc1ccccc1/C=N/CC1CCCO1` (stereo not drawn) [monomer 11], in test [1], the “retention on the affinity column in the presence of zinc” value is on record as “most strongly retained”. The “retention on cellulose, presence versus absence of zinc” value in test [2] is “more strongly retained”.
On to `Oc1ccccc1/C=N/CCc1ccccn1` [monomer 12], for which, in test [1] (0.5 mM each of 8-13, with or without 26 MM ZnCl2), the “derivatized monomer eluted in the presence of zinc versus absence of zinc” value is listed as “twice as much”.
